In patent US11667663B2, “Cyclic dinucleotides as anticancer agents” (BRISTOL-MYERS SQUIBB COMPANY, priority 2017, dated 2023):
Read-outs that look alike come from different tables or passages of the source.

Legend:
NF-κB pathway = assay: STING THP1 reporter assay, NF-κB pathway (SEAP); assay type: cell-based; settings: THP1-Dual cells, 10% human plasma, SEAP readout, 100% = 100 μM cGAMP, read-out: THP1 Reporter Assays EC50 NFkB
Excerpt: (§1) STING THP1 Reporter Assay Protocol
(§2) THP1-Dual™ cells were derived from the human THP-1 monocyte cell line by stable integration of two inducible reporter constructs. To this end, THP1-Dual™ cells allow the simultaneous study of the NF-κB pathway, by monitoring the activity of SEAP, and the IRF pathway by assessing the activity of a secreted luciferase (Lucia). Both reporter proteins are readily measurable in the cell culture supernatant when using QUANTI-Blue™, a SEAP detection reagent, and QUANTI-Luc™, a luciferase detection reagent.
(§3) THP1-Dual™ cells induce the activation of NF-κB in response to STING agonists. They also trigger the IRF pathway upon stimulation with STING agonists, such as cGAMP. Here, the THP-1-Dual cells were used to assess STING binders for function on the cellular level.
(§4) Serial dilutions of compounds in DMSO were added to low volume 384 well plates at 100 nl/well using an ECHO acoustic dispenser (Labcyte, model 550) to achieve final starting concentration of 100 μM in cell suspension. THP-1 Dual™ STING reporter cells (Invivogen, Dual cells cat #THPD-nfis) were added to the plates with compounds at 15,000 cells in 10 μL per well in RPMI media (Gibco, cat #11875) containing 10% human plasma in a low volume 384-well black wall clear bottom tissue culture plate (Corning, cat #3542) for SEAP assay and low volume solid white plate (Corning, cat #3826) for luciferase assay. One column of the plate was reserved for treatment with cGAMP at 100 μM for 100% activation calculation and one column for no treatment (DMSO only) for baseline activation. Plates were then incubated in 37 OC incubator at 5% CO2 for 20 hours.
(§5) In the SEAP assay, 5 μl of 2× QuantiBlue (Invivogen, cat #Rep-qb2) is added to 384 well black plates seeded with THP1 cells and incubated at 37° C. for 2 hours. Plates were read on the Envision (Perkin Elmer) at 620 nm wavelength (OD620). In the luciferase assay, 5 μl of Quantiluc (Invivogen, Rep-qlc2) is added to white 384 well plates seeded with THP1 cells and read at 5 minutes on the Envision (Perkin Elmer) using a luminescence protocol (RLU). For both cell lines, 100% activation was determined by value (RLU) of THP-1 Dual STING cells stimulated with 100 μM cGAMP (Invivogen, cat #TLRL-NACGA23-5).

IRF pathway = assay: STING THP1 reporter assay, IRF pathway (Lucia luciferase); assay type: cell-based; settings: THP1-Dual cells, 10% human plasma, luciferase readout, 100% = 100 μM cGAMP, read-out: THP1 Reporter Assays EC50 IRF3
Excerpt: as §1, §2, §3, §4, §5

[1] = target: T1, STING AQ: His-TVMV-S-hSTING(155-341)-G230A-R293Q (Homo sapiens, UniProt Q86WV6, G230A/H232R/R293Q); assay: STING HTRF competition binding assay, STING AQ; settings: 20 nM His-tagged STING cytoplasmic domain AQ, 40 nM fluorescein-labeled cGAMP analog probe, one hour; read-out: HTRF Binding Assays IC50 AQ
T1 construct: STING AQ: His-TVMV-S-hSTING(155-341)-G230A-R293Q
Description: (§6) Sting HTRF Binding Assays
(§7) A time resolved FRET-based competition binding assay was used to assess test article binding to STING WT and STING AQ. His-tagged STING cytoplasmic domain (WT or AQ) at a concentration of 20 nM was incubated with 2.5 nM Tb-labeled anti-His antibody, test compound, and fluorescein-labeled cGAMP analog probe (BioLog cat. no. C195) at a concentration of 200 nM (STING WT) or 40 nM (STING AQ) in PBS containing 0.005% Tween-20 and 0.1% BSA for one hour. Fluorescence at 495 nm and 520 nm was measured using an EnVision microplate reader to quantify FRET between Tb-labeled anti-His antibody and fluorescein-labeled probe. Background was defined as the signal obtained in the absence of STING protein, and background subtracted FRET ratios were normalized to the maximum signal obtained in the absence of test compound. These values were converted to a percent inhibition. Percent inhibition was determined for test compounds at 11 concentrations. The IC50, defined as the concentration of competing test compound needed to reduce specific binding of the probe by 50%, was calculated using the 4 parameter logistic equation to fit the data

[2] = target: T2, STING WT: His-TVMV-S-hSTING(155-341)-H232R (Homo sapiens, UniProt Q86WV6, H232R); assay: STING HTRF competition binding assay, STING WT; settings: 20 nM His-tagged STING cytoplasmic domain WT, 200 nM fluorescein-labeled cGAMP analog probe, one hour; read-out: HTRF Binding Assays IC50 WT
T2 construct: STING WT: His-TVMV-S-hSTING(155-341)-H232R
Description: as §6, §7

T1 sequence (Q86WV6 with tags, fused parts or gaps G230A/H232R/R293Q): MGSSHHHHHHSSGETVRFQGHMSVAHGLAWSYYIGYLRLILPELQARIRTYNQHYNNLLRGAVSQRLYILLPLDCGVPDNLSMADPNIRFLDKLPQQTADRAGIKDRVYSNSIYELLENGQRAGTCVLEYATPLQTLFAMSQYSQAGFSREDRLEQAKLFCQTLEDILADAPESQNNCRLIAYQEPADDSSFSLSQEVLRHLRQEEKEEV
T2 sequence (Q86WV6 with tags, fused parts or gaps H232R): as the sequence (Q86WV6 with tags, fused parts or gaps G230A/H232R/R293Q) above, with A99G, Q162R counted along it

Row | EC50 (NF-κB pathway; 20 hours) [nM] | EC50 (IRF pathway; 20 hours) [nM] | IC50 [1] [nM] | IC50 [2] [nM] | EC50 (NF-κB pathway; Homo sapiens, THP-1, 20 h) [nM] | EC50 (IRF pathway; Homo sapiens, THP-1, 20 h) [nM] | Structure (SMILES)
1 | > 100000 | > 100000 | 90 | 2400 |  |  | NC(=O)c1cc([C@@H]2O[C@@H]3COP(=O)(S)O[C@H]4[C@@H](F)[C@H](n5cnc6c(N)ncnc65)O[C@@H]4COP(=O)(S)O[C@@H]2[C@@H]3O)[nH]n1 (single isomer, unassigned) [Example 1-1]
2 |  |  | 40 | 680 | > 100000 | > 100000 | NC(=O)c1cc([C@@H]2O[C@@H]3COP(O)(=S)O[C@H]4[C@@H](F)[C@H](n5cnc6c(N)ncnc65)O[C@@H]4COP(O)(=S)O[C@@H]2[C@@H]3O)[nH]n1 (stereo partly shown) [Example 1-4]
3 | 6800 | 4000 | 10 | 50 |  |  | NC(=O)c1cc([C@@H]2O[C@@H]3COP(=O)(S)O[C@H]4[C@@H](F)[C@H](n5cnc6c(N)ncnc65)O[C@@H]4COP(=O)(S)O[C@@H]2[C@@H]3O)[nH]n1 (single isomer, unassigned) [Example 1-3]
4 | > 100000 | > 100000 | 30 | 910 |  |  | NC(=O)c1cc([C@@H]2O[C@@H]3COP(=O)(S)O[C@H]4[C@@H](F)[C@H](n5cnc6c(N)ncnc65)O[C@@H]4COP(=O)(S)O[C@@H]2[C@@H]3O)[nH]n1 (single isomer, unassigned) [Example 1-2]
